Assay: xn = mol fraction of the nth substance listed

O=C(O)c1cccnc1 + CCCC[n+]1ccn(C)c1.[Br-] + O
viscosity [mPa·s], 100 kPa
Settings | 293.15 K | 298.15 K | 303.15 K | 308.15 K | 313.15 K | 318.15 K
x1 = 0.0002684, x2 = 0 | 1.015 | 0.903 | 0.807 | 0.734 | 0.666 | 0.61
x1 = 0.0002711, x2 = 0.0008999 | 1.035 | 0.92 | 0.824 | 0.754 | 0.677 | 0.62
x1 = 0.0002757, x2 = 0.001798 | 1.06 | 0.94 | 0.842 | 0.759 | 0.69 | 0.632
x1 = 0.0002802, x2 = 0.002695 | 1.071 | 1.002 | 0.906 | 0.796 | 0.75 | 0.681
x1 = 0.0005421, x2 = 0 | 1.018 | 0.905 | 0.809 | 0.737 | 0.669 | 0.614
x1 = 0.0005475, x2 = 0.0008997 | 1.039 | 0.923 | 0.827 | 0.756 | 0.678 | 0.621
x1 = 0.0005493, x2 = 0.001798 | 1.063 | 0.942 | 0.843 | 0.761 | 0.691 | 0.633
x1 = 0.0005547, x2 = 0.002694 | 1.074 | 1.004 | 0.908 | 0.797 | 0.751 | 0.682
x1 = 0.0008084, x2 = 0 | 1.021 | 0.908 | 0.812 | 0.742 | 0.673 | 0.617
x1 = 0.0008166, x2 = 0.0008994 | 1.042 | 0.925 | 0.829 | 0.758 | 0.68 | 0.622
x1 = 0.0008283, x2 = 0.001797 | 1.066 | 0.945 | 0.845 | 0.763 | 0.693 | 0.634
x1 = 0.0008364, x2 = 0.002693 | 1.077 | 1.007 | 0.91 | 0.799 | 0.753 | 0.683
x1 = 0.001084, x2 = 0 | 1.024 | 0.911 | 0.814 | 0.746 | 0.677 | 0.62
x1 = 0.001093, x2 = 0.0008992 | 1.044 | 0.927 | 0.83 | 0.759 | 0.681 | 0.624
x1 = 0.001104, x2 = 0.001797 | 1.069 | 0.947 | 0.848 | 0.765 | 0.694 | 0.635
x1 = 0.001114, x2 = 0.002693 | 1.08 | 1.009 | 0.912 | 0.801 | 0.754 | 0.684
x1 = 0.001351, x2 = 0 | 1.027 | 0.913 | 0.816 | 0.75 | 0.681 | 0.624
x1 = 0.001363, x2 = 0.000899 | 1.047 | 0.93 | 0.833 | 0.762 | 0.683 | 0.625
x1 = 0.001377, x2 = 0.001796 | 1.071 | 0.95 | 0.85 | 0.767 | 0.696 | 0.636
x1 = 0.00139, x2 = 0.002692 | 1.083 | 1.012 | 0.915 | 0.803 | 0.756 | 0.686
x1 = 0.001619, x2 = 0 | 1.03 | 0.916 | 0.819 | 0.754 | 0.685 | 0.628
x1 = 0.001635, x2 = 0.0008987 | 1.05 | 0.932 | 0.835 | 0.763 | 0.684 | 0.619
x1 = 0.001652, x2 = 0.001796 | 1.074 | 0.952 | 0.852 | 0.768 | 0.697 | 0.638
x1 = 0.001666, x2 = 0.002691 | 1.086 | 1.014 | 0.917 | 0.805 | 0.757 | 0.687

CCCC[n+]1ccn(C)c1.CS(=O)(=O)[O-] + CCCC[n+]1ccn(C)c1.[Cl-]
Settings | viscosity [mPa·s]
353.15 K, 102 kPa, x1 = 0.2 | 98

CCCCn1cc[n+](C)c1C.O=S(=O)([N-]S(=O)(=O)C(F)(F)F)C(F)(F)F + CCCC[n+]1ccn(C)c1C.F[B-](F)(F)F
Settings | electrical conductivity [S/m]
358.15 K, 100 kPa, x1 = 1 | 1.71

CS(=O)(=O)[O-].C[N+](C)(CCO)CCO + CCCO
viscosity [mPa·s], 101 kPa
Settings | x1 = 0.0999 | x1 = 0.1996 | x1 = 0.2999 | x1 = 0.3987 | x1 = 0.498 | x1 = 0.5975 | x1 = 0.6972 | x1 = 0.7982 | x1 = 0.8978 | x1 = 1
298.15 K | 4.97 | 11.64 | 25.5 | 50.9 | 97.5 | 196 | 337 | 576 | 960 | 1495
303.15 K | 4.34 | 9.88 | 20.9 | 40.6 | 75.5 | 149 | 248 | 414 | 676 | 1021
308.15 K | 3.8 | 8.45 | 17.4 | 32.9 | 59.6 | 114.8 | 187 | 304 | 484 | 716
313.15 K | 3.36 | 7.29 | 14.66 | 27 | 47.7 | 79.8 | 142.8 | 228 | 355 | 513
318.15 K | 2.98 | 6.35 | 12.49 | 22.5 | 38.8 | 63.7 | 111.4 | 174 | 267 | 378
323.15 K | 2.66 | 5.56 | 10.92 | 18.9 | 32 | 51.5 | 79.8 | 135.8 | 203 | 282

COP(=O)([O-])OC.C[N+]1(CCO)CCCC1 + CCO
100 kPa
Settings | viscosity [mPa·s]
293.15 K, x1 = 0.1077 | 4.74
293.15 K, x1 = 0.2079 | 12.31
293.15 K, x1 = 0.3084 | 32
293.15 K, x1 = 0.4033 | 55.9
293.15 K, x1 = 0.5077 | 123
293.15 K, x1 = 0.7053 | 402
298.15 K, x1 = 0.7053 | 295
298.15 K, x1 = 0.8055 | 478
303.15 K, x1 = 0.0561 | 2.02
303.15 K, x1 = 0.2079 | 9.66
303.15 K, x1 = 0.3084 | 23.7
303.15 K, x1 = 0.5077 | 78.2
308.15 K, x1 = 0.0561 | 1.73
308.15 K, x1 = 0.1077 | 3.54
308.15 K, x1 = 0.1523 | 5.76
308.15 K, x1 = 0.3084 | 21.1
313.15 K, x1 = 0.9053 | 277
318.15 K, x1 = 0.2079 | 7.02
318.15 K, x1 = 0.2537 | 10.45
318.15 K, x1 = 0.4033 | 26.5
318.15 K, x1 = 0.5077 | 44.7
318.15 K, x1 = 1 | 273
323.15 K, x1 = 0.5077 | 38.1
323.15 K, x1 = 0.6042 | 60
328.15 K, x1 = 0.2079 | 5.83
328.15 K, x1 = 0.3084 | 12.98
328.15 K, x1 = 0.6042 | 50.4
333.15 K, x1 = 0.4033 | 17.9
333.15 K, x1 = 0.7053 | 54.1
338.15 K, x1 = 0.4033 | 16.24
338.15 K, x1 = 0.5077 | 23.8
338.15 K, x1 = 0.6042 | 35.9
338.15 K, x1 = 0.8055 | 60.9

From the CheMixHub ionic liquid set
